# Measured values published in BindingDB's records for doi:10.1016/j.chembiol.2006.12.006 (Research Institute, Hospital For Sick Children, 2007).
# Biological target: T1, Beta-hexosaminidase subunit alpha (Homo sapiens, UniProt P06865)
# T1 sequence (P06865 whole entry): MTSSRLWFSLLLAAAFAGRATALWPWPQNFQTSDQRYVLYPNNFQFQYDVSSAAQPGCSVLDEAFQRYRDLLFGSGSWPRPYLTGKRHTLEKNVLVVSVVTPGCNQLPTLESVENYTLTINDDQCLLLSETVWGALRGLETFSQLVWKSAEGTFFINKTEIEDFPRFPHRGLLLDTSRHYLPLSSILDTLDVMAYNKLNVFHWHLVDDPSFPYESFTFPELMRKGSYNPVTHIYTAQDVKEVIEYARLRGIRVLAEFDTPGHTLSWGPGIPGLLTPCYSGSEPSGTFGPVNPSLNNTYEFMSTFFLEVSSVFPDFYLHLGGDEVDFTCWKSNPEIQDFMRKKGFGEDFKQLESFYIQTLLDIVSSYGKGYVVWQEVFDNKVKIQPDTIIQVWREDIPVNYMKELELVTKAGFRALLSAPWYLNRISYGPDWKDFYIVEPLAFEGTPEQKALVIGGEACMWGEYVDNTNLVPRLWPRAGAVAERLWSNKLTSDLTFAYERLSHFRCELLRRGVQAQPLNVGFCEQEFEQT
# Test: Enzyme Inhibition Assay
# Conditions: 25 °C
# Excerpt: Enzyme assay based on 4-MU substrates with HTS to identify inhibitory compounds for Hex.
row,IC50 [µM],SMILES
1,138,O=C1c2cccc3cccc(c23)C(=O)N1CC1CCCO1 (stereo not given) [M-31860]
2,18,O=C1NC(=O)c2cccc3cccc1c23 [BTB12933]
3,31,CC(O)CCN1C(=O)c2cccc3cccc(c23)C1=O (stereo not given) [M-31867]
4,108,O=C1c2cccc3cccc(c23)C(=O)N1CCCc1ccccn1 [M-31862]
5,16,O=C1c2cccc3cccc(c23)C(=O)N1CCCO [5141402]
